System: EA.Hy926 cells
Assay: Measurement of intracellular nitric oxide using flow-cytometry (DAF FM-DA)
Format: cell-based, human
Conditions: for NO activity: with or without folic acid pretreatment 24 hrs, then EGCG stimulation 30 mins, DAF FM-DA fluorescence compared with untreated cells (1.0 = no increase over untreated sample)
Experimental: The cultured human endothelial cell line EA.Hy926 cells were procured from American Type Culture Collection ([…]) and were cultured in DMEM (Sigma) supplemented with 2 mM L-glutamine, 100 U/ml penicillin, 100 μg/ml streptomycin and 10% vol/vol FBS (Gibco, Invitrogen). Cells were cultured at 37° C. in 95% humidified air with 5% CO2. After attaining 70-80% confluence, the cells were sub-cultured by trypsinization (0.25% Tryp-EDTA, for 2-3 min). For experimental purpose, cells were seeded onto 24 well tissue culture plates (CLS3524 Sigma). […] Measurement of Intracellular Nitric Oxide Using Flow-Cytometry Experimental Flow: […] EAHy926 (5×10^5) cells were seed into 24 well tissue culture plate and allowed to adhere for 12-16 hrs. 2. After adherence, cells were treated with or without 4.41 μg/ml (10 μM) folic acid and incubated for 24 hrs in DMEM without FBS. 3. The cells in 24 well tissue culture plates were loaded with DAF FM-DA (1 μM) for 30 min, washed twice with serum free medium. 4. Subsequently, cells were stimulated with different concentration of EGCG for 30 mins and washed twice with serum free medium. 5. The stimulated cells were trypsinized with 0.25% Trypsin-EDTA and fixed with 2% PFA for 15 min. 6. The suspension of cells were acquired using flow-cytometry. A population of 10,000 cells were gated and segregated based on their relative fluorescence intensities using FACS Calibur (BD; SanDiego). The mean yield of two distinct populations was measured and compared with the respective population in untreated cells. The data on the Nitric Oxide activity is summarized in Table-1 for the various compositions which may be […] catechins (EGCG) alone at various concentrations or folic acid alone or EGCG in combination with folic acid.

SMILES | NO activity, effect of increasing concentration or of combination (in words) (summary of the data in Table-1) | NO activity
O=C(O[C@@H]1Cc2c(O)cc(O)cc2O[C@@H]1c1cc(O)c(O)c(O)c1)c1cc(O)c(O)c(O)c1 [EGCG, (−)-epigallocatechin gallate] | increases NO activity till an EGCG concentration of about 11 μg and thereafter the NO activity decreases | 
O=C(O[C@@H]1Cc2c(O)cc(O)cc2O[C@@H]1c1cc(O)c(O)c(O)c1)c1cc(O)c(O)c(O)c1 [Example 2, EGCG] |  | 2.87
O=C(O[C@@H]1Cc2c(O)cc(O)cc2O[C@@H]1c1cc(O)c(O)c(O)c1)c1cc(O)c(O)c(O)c1 [Example 3, EGCG] |  | 2.98
O=C(O[C@@H]1Cc2c(O)cc(O)cc2O[C@@H]1c1cc(O)c(O)c(O)c1)c1cc(O)c(O)c(O)c1 [Example 4, EGCG] |  | 3.75
O=C(O[C@@H]1Cc2c(O)cc(O)cc2O[C@@H]1c1cc(O)c(O)c(O)c1)c1cc(O)c(O)c(O)c1 [Example 5, EGCG] |  | 3.58
O=C(O[C@@H]1Cc2c(O)cc(O)cc2O[C@@H]1c1cc(O)c(O)c(O)c1)c1cc(O)c(O)c(O)c1 [Example 6, EGCG] |  | 2.32
O=C(O[C@@H]1Cc2c(O)cc(O)cc2O[C@@H]1c1cc(O)c(O)c(O)c1)c1cc(O)c(O)c(O)c1 [Example 7, EGCG] |  | 1.64
O=C(O[C@@H]1Cc2c(O)cc(O)cc2O[C@@H]1c1cc(O)c(O)c(O)c1)c1cc(O)c(O)c(O)c1 [Example 8, EGCG] |  | 0.63
